Laboratory results from PubChem BioAssay (NCI).
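Exposure lasted 48 hours, with cells grown in 96-well plates and compounds tested at five concentrations. The concentration for 50% growth inhibition is given as GI50. TGI: concentration producing complete growth inhibition.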

Columns and labels:
Assay in all cases: NCI anticancer screen, dose series, 48 h
NCI-H522 lung = test system: NCI-H522 lung
HCC-2998 colon = test system: HCC-2998 colon
UACC-62 melanoma = test system: UACC-62 melanoma
BT-549 breast = test system: BT-549 breast
SR leukemia = test system: SR leukemia
RXF 393 renal = test system: RXF 393 renal
HL-60(TB) leukemia = test system: HL-60(TB) leukemia
RPMI-8226 leukemia = test system: RPMI-8226 leukemia
SF-268 CNS = test system: SF-268 CNS
PC-3 prostate = test system: PC-3 prostate
SK-OV-3 ovarian = test system: SK-OV-3 ovarian
NCI-H460 lung = test system: NCI-H460 lung
M14 melanoma = test system: M14 melanoma
UACC-257 melanoma = test system: UACC-257 melanoma
SW-620 colon = test system: SW-620 colon
MDA-MB-435 = test system: MDA-MB-435
NCI-H226 lung = test system: NCI-H226 lung
SF-539 CNS = test system: SF-539 CNS
HT29 colon = test system: HT29 colon
ACHN renal = test system: ACHN renal
HOP-92 NSCLC = test system: HOP-92 NSCLC
COLO 205 colon = test system: COLO 205 colon
MOLT-4 leukemia = test system: MOLT-4 leukemia
CCRF-CEM leukemia = test system: CCRF-CEM leukemia
SK-MEL-5 melanoma = test system: SK-MEL-5 melanoma
HS 578T breast = test system: HS 578T breast
TK-10 renal = test system: TK-10 renal
MALME-3M melanoma = test system: MALME-3M melanoma
SK-MEL-2 melanoma = test system: SK-MEL-2 melanoma
OVCAR-4 ovarian = test system: OVCAR-4 ovarian
K-562 leukemia = test system: K-562 leukemia
A498 renal = test system: A498 renal
HOP-62 NSCLC = test system: HOP-62 NSCLC
NCI-H23 lung = test system: NCI-H23 lung
A549 NSCLC = test system: A549 NSCLC
EKVX NSCLC = test system: EKVX NSCLC
MCF7 breast = test system: MCF7 breast
OVCAR-5 ovarian = test system: OVCAR-5 ovarian
SNB-19 CNS = test system: SNB-19 CNS
MDA-MB-231 breast = test system: MDA-MB-231 breast
786-0 renal = test system: 786-0 renal
SN12C renal = test system: SN12C renal
NCI/ADR-RES ovarian = test system: NCI/ADR-RES ovarian
HCT-116 colon = test system: HCT-116 colon
SK-MEL-28 melanoma = test system: SK-MEL-28 melanoma
OVCAR-8 ovarian = test system: OVCAR-8 ovarian
IGROV1 ovarian = test system: IGROV1 ovarian
KM12 colon = test system: KM12 colon
CAKI-1 renal = test system: CAKI-1 renal
LOX IMVI melanoma = test system: LOX IMVI melanoma
OVCAR-3 ovarian = test system: OVCAR-3 ovarian
HCT-15 colon = test system: HCT-15 colon
SNB-75 CNS = test system: SNB-75 CNS
DU-145 prostate = test system: DU-145 prostate
UO-31 renal = test system: UO-31 renal
U251 CNS = test system: U251 CNS
T-47D breast = test system: T-47D breast

Compound C[C@]12CCC(=O)CC1CC[C@@H]1C2CC[C@@]2(C)C1CC[C@@H]2OC(=O)CC[Se][Se]CCC(=O)O[C@H]1CCC2[C@@H]3CCC4CC(=O)CC[C@]4(C)C3CC[C@@]21C (stereo partly drawn) has a GI50 (NCI-H522 lung) of 3.17 µM, a TGI (NCI-H522 lung) of 10.9 µM and a GI50 (HCC-2998 colon) of 13.4 µM. It also gave a TGI (HCC-2998 colon) of 31.6 µM, a GI50 (UACC-62 melanoma) of 2.2 µM and a TGI (UACC-62 melanoma) of 8.05 µM. The GI50 (BT-549 breast) was 2.1 µM, the TGI (BT-549 breast) was 4.52 µM and the GI50 (SR leukemia) was 4.28 µM. For the same compound, the TGI (SR leukemia) was greater than 100 µM, the GI50 (RXF 393 renal) was 2.08 µM and the TGI (RXF 393 renal) was 7.95 µM. It also gave a GI50 (HL-60(TB) leukemia) of 4.15 µM, a TGI (HL-60(TB) leukemia) greater than 100 µM and a GI50 (RPMI-8226 leukemia) of 5.03 µM. It also gave a TGI (RPMI-8226 leukemia) greater than 100 µM, a GI50 (SF-268 CNS) of 1.86 µM and a TGI (SF-268 CNS) of 3.79 µM. It also gave a GI50 (PC-3 prostate) of 2.55 µM, a TGI (PC-3 prostate) of 8.27 µM and a GI50 (SK-OV-3 ovarian) of 7.15 µM. The TGI (SK-OV-3 ovarian) was 17.4 µM, the GI50 (NCI-H460 lung) was 2.84 µM and the TGI (NCI-H460 lung) was 9.81 µM. For the same compound, the GI50 (M14 melanoma) was 2.28 µM, the TGI (M14 melanoma) was 5.69 µM and the GI50 (UACC-257 melanoma) was 2.86 µM. For the same compound, the TGI (UACC-257 melanoma) was 13 µM, the GI50 (SW-620 colon) was 4.81 µM and the TGI (SW-620 colon) was 20 µM. It also gave a GI50 (MDA-MB-435) of 1.82 µM, a TGI (MDA-MB-435) of 3.83 µM and a GI50 (NCI-H226 lung) of 2.25 µM. The TGI (NCI-H226 lung) was 5.79 µM, the GI50 (SF-539 CNS) was 3.22 µM and the TGI (SF-539 CNS) was 10.5 µM. The GI50 (HT29 colon) was 2.5 µM, the TGI (HT29 colon) was 6.01 µM and the GI50 (ACHN renal) was 3.61 µM. For the same compound, the TGI (ACHN renal) was 13.2 µM, the GI50 (HOP-92 NSCLC) was 2.22 µM and the TGI (HOP-92 NSCLC) was 6.04 µM. The GI50 (COLO 205 colon) was 2.17 µM, the TGI (COLO 205 colon) was 4.01 µM and the GI50 (MOLT-4 leukemia) was 4.67 µM. For the same compound, the TGI (MOLT-4 leukemia) was greater than 100 µM, the GI50 (CCRF-CEM leukemia) was 3.54 µM and the TGI (CCRF-CEM leukemia) was greater than 100 µM. It also gave a GI50 (SK-MEL-5 melanoma) of 1.77 µM, a TGI (SK-MEL-5 melanoma) of 3.35 µM and a GI50 (HS 578T breast) of 2.02 µM. The TGI (HS 578T breast) was 7.79 µM, the GI50 (TK-10 renal) was 2.1 µM and the TGI (TK-10 renal) was 4.79 µM. For the same compound, the GI50 (MALME-3M melanoma) was 1.83 µM, the TGI (MALME-3M melanoma) was 3.63 µM and the GI50 (SK-MEL-2 melanoma) was 2.67 µM. The TGI (SK-MEL-2 melanoma) was 5.7 µM, the GI50 (OVCAR-4 ovarian) was 3.51 µM and the TGI (OVCAR-4 ovarian) was 15.6 µM. It also gave a GI50 (K-562 leukemia) of 10 µM, a TGI (K-562 leukemia) greater than 100 µM and a GI50 (A498 renal) of 1.76 µM. The TGI (A498 renal) was 4.15 µM, the GI50 (HOP-62 NSCLC) was 2.52 µM and the TGI (HOP-62 NSCLC) was 5.34 µM. For the same compound, the GI50 (NCI-H23 lung) was 3.63 µM, the TGI (NCI-H23 lung) was 18.4 µM and the GI50 (A549 NSCLC) was 1.94 µM. For the same compound, the TGI (A549 NSCLC) was 4.39 µM, the GI50 (EKVX NSCLC) was 2.44 µM and the GI50 (MCF7 breast) was 3.85 µM. For the same compound, the TGI (MCF7 breast) was 12 µM, the GI50 (OVCAR-5 ovarian) was 6.5 µM and the TGI (OVCAR-5 ovarian) was 25.1 µM. For the same compound, the GI50 (SNB-19 CNS) was 2.25 µM, the TGI (SNB-19 CNS) was 6.43 µM and the GI50 (MDA-MB-231 breast) was 1.57 µM. It also gave a TGI (MDA-MB-231 breast) of 3.36 µM, a GI50 (786-0 renal) of 3.25 µM and a TGI (786-0 renal) of 9.36 µM. For the same compound, the GI50 (SN12C renal) was 1.82 µM, the TGI (SN12C renal) was 3.75 µM and the GI50 (NCI/ADR-RES ovarian) was 3.03 µM. The TGI (NCI/ADR-RES ovarian) was 11.4 µM, the GI50 (HCT-116 colon) was 2.01 µM and the TGI (HCT-116 colon) was 4.16 µM. The GI50 (SK-MEL-28 melanoma) was 2.01 µM, the TGI (SK-MEL-28 melanoma) was 5.05 µM and the GI50 (OVCAR-8 ovarian) was 3.06 µM. For the same compound, the TGI (OVCAR-8 ovarian) was 9.84 µM, the GI50 (IGROV1 ovarian) was 2.13 µM and the TGI (IGROV1 ovarian) was 4.3 µM. For the same compound, the GI50 (KM12 colon) was 4.09 µM, the TGI (KM12 colon) was 14.5 µM and the GI50 (CAKI-1 renal) was 1.64 µM. It also gave a TGI (CAKI-1 renal) of 5.09 µM, a GI50 (LOX IMVI melanoma) of 2.12 µM and a TGI (LOX IMVI melanoma) of 5.07 µM. For the same compound, the GI50 (OVCAR-3 ovarian) was 2.73 µM, the TGI (OVCAR-3 ovarian) was 6.84 µM and the GI50 (HCT-15 colon) was 3.64 µM. It also gave a TGI (HCT-15 colon) of 16 µM, a GI50 (SNB-75 CNS) of 1.48 µM and a TGI (SNB-75 CNS) of 3.02 µM. It also gave a GI50 (DU-145 prostate) of 2.19 µM, a TGI (DU-145 prostate) of 5.05 µM and a GI50 (UO-31 renal) of 2.61 µM. The TGI (UO-31 renal) was 10.7 µM, the GI50 (U251 CNS) was 1.91 µM and the TGI (U251 CNS) was 3.85 µM. It also gave a GI50 (T-47D breast) of 9.1 µM and a TGI (T-47D breast) of 27.1 µM.
